{"source": "patent US20030138935A1", "about": "“Selective deactivation of yeast in corn wet milling process slurries” (priority 2002, published 2003)", "key": {"[1]": {"system": "gas-producing microorganisms in corn wet milling heavy steepwater", "test": "Flask Pressure Profile (gas production in heavy steepwater)", "assay_type": "cell-based, yeast", "settings": "for Manometer readings: 100° F.", "method": "All tests were conducted using heavy […] samples provided by a major U.S. corn wet milling facility. A Flask Pressure Profile method was developed and used to measure changes in gas production. The sample of heavy […] to an Erlenmeyer flask, then placed into a water bath at 100° F. and agitated slowly (30-40 rpm). The flask was connected to a U-tube manometer filled with distilled water. […] An increase in flask pressure indicated gas-producing microbial activity. Tests using octanoic acid were performed in […] ppm (control), 10 ppm, 25 ppm, and 50 ppm (active)."}, "[2]": {"system": "yeast and lactic acid producing bacteria", "test": "Pour-plate culture on Sabourad-Dextrose Agar (SDA)", "assay_type": "cell-based, lactobacillus", "settings": "for Plate Showing activity, SDA: serial dilution", "method": "(§1) All tests were conducted using heavy […] samples provided by a major U.S. corn wet milling facility. To confirm the concept that octanoic acid is selective in killing only yeast but not desirable bacteria, microbiological activity was assessed by examining separate culture plates prepared using two different agars. Plates prepared using Potato-Dextrose Agar (PDA) were used to assess the fate of yeast in the present of octanoic acid, as PDA is known to be specific to the propagation of yeast and mold. Plates prepared using Sabourad-Dextrose Agar (SDA) were used to determine the fate of “desired” bacteria as SDA is specific for both yeast and lactic acid producing bacteria. Several serial dilutions (10^1 to 10^7) of heavy […] samples were prepared for the pour plates at 0 ppm (control), 10 ppm, 25 ppm, and 50 ppm (active) of octanoic acid, then agitated in a 100° F. shaking water bath for 4 hours. Plates were similarly prepared using the same samples after agitation for 24 hours. All plates were incubated at […]. for 4 days before performing measurements. In addition to inspecting the plates for microbial activity, aliquots of each sample (after 4 hours and after 24 hours) were examined under a microscope for visual speciation."}, "yeast and mold": {"system": "yeast and mold", "test": "Pour-plate culture on Potato-Dextrose Agar (PDA)", "assay_type": "cell-based", "settings": "test concentrations from 10-50 ppm; 4 hour and 24 hour incubations", "method": "as §1"}}, "note": "“And” between values parts separate entries of the source, which are not always exact repeats. Equal values may be shown once.", "data": [{"smiles": "CCCCCCCC(=O)O", "note": "[Octanoic Acid, Octanoic acid]", "values": [{"measurement": "Manometer readings", "setting": "[1]; 10 ppm, t = 0 hours", "result": "0.0 in H2O and 0 in H2O"}, {"measurement": "Manometer readings", "setting": "[1]; 10 ppm, t = 1 hours", "result": 0.0, "unit": "in H2O"}, {"measurement": "Manometer readings", "setting": "[1]; 10 ppm, t = 1.5 hours", "result": 0.0, "unit": "in H2O"}, {"measurement": "Manometer readings", "setting": "[1]; 10 ppm, t = 2 hours", "result": 0.0, "unit": "in H2O"}, {"measurement": "Manometer readings", "setting": "[1]; 10 ppm, t = 2.5 hours", "result": 0.0, "unit": "in H2O"}, {"measurement": "Manometer readings", "setting": "[1]; 10 ppm, t = 3 hours", "result": 0.0, "unit": "in H2O"}, {"measurement": "Manometer readings", "setting": "[1]; 10 ppm, t = 3.5 hours", "result": 0.0, "unit": "in H2O"}, {"measurement": "Manometer readings", "setting": "[1]; 10 ppm, t = 4 hours", "result": 0.0, "unit": "in H2O"}, {"measurement": "Manometer readings", "setting": "[1]; 10 ppm, t = 4.5 hours", "result": 0.0, "unit": "in H2O"}, {"measurement": "Manometer readings", "setting": "[1]; 10 ppm, t = 5 hours", "result": 0.0, "unit": "in H2O"}, {"measurement": "Manometer readings", "setting": "[1]; 10 ppm, t = 5.5 hours", "result": 0.0, "unit": "in H2O"}, {"measurement": "Manometer readings", "setting": "[1]; 10 ppm, t = 6 hours", "result": 0.0, "unit": "in H2O"}, {"measurement": "Manometer readings", "setting": "[1]; 10 ppm, t = 6.5 hours", "result": 0.0, "unit": "in H2O"}, {"measurement": "Manometer readings", "setting": "[1]; 25 ppm, t = 0 hours", "result": 0.0, "unit": "in H2O"}, {"measurement": "Manometer readings", "setting": "[1]; 25 ppm, t = 0.5 hours", "result": 0.25, "unit": "in H2O"}, {"measurement": "Manometer readings", "setting": "[1]; 25 ppm, t = 1 hours", "result": 0.0, "unit": "in H2O"}, {"measurement": "Manometer readings", "setting": "[1]; 25 ppm, t = 1.5 hours", "result": 0.0, "unit": "in H2O"}, {"measurement": "Manometer readings", "setting": "[1]; 25 ppm, t = 2 hours", "result": 0.0, "unit": "in H2O"}, {"measurement": "Manometer readings", "setting": "[1]; 25 ppm, t = 2.5 hours", "result": 0.0, "unit": "in H2O"}, {"measurement": "Manometer readings", "setting": "[1]; 25 ppm, t = 3 hours", "result": 0.0, "unit": "in H2O"}, {"measurement": "Manometer readings", "setting": "[1]; 25 ppm, t = 3.5 hours", "result": 0.0, "unit": "in H2O"}, {"measurement": "Manometer readings", "setting": "[1]; 25 ppm, t = 4 hours", "result": 0.0, "unit": "in H2O"}, {"measurement": "Manometer readings", "setting": "[1]; 25 ppm, t = 4.5 hours", "result": 0.0, "unit": "in H2O"}, {"measurement": "Manometer readings", "setting": "[1]; 25 ppm, t = 5 hours", "result": 0.0, "unit": "in H2O"}, {"measurement": "Manometer readings", "setting": "[1]; 25 ppm, t = 5.5 hours", "result": 0.0, "unit": "in H2O"}, {"measurement": "Manometer readings", "setting": "[1]; 25 ppm, t = 6 hours", "result": 0.0, "unit": "in H2O"}, {"measurement": "Manometer readings", "setting": "[1]; 25 ppm, t = 6.5 hours", "result": 0.0, "unit": "in H2O"}, {"measurement": "Manometer readings", "setting": "[1]; 50 ppm, t = 0 hours", "result": 0.0, "unit": "in H2O"}, {"measurement": "Manometer readings", "setting": "[1]; 50 ppm, t = 0.5 hours", "result": 0.0, "unit": "in H2O"}, {"measurement": "Manometer readings", "setting": "[1]; 50 ppm, t = 1 hours", "result": 0.0, "unit": "in H2O"}, {"measurement": "Manometer readings", "setting": "[1]; 50 ppm, t = 1.5 hours", "result": 0.0, "unit": "in H2O"}, {"measurement": "Manometer readings", "setting": "[1]; 50 ppm, t = 2 hours", "result": 0.0, "unit": "in H2O"}, {"measurement": "Manometer readings", "setting": "[1]; 50 ppm, t = 2.5 hours", "result": 0.0, "unit": "in H2O"}, {"measurement": "Manometer readings", "setting": "[1]; 50 ppm, t = 3 hours", "result": 0.0, "unit": "in H2O"}, {"measurement": "Manometer readings", "setting": "[1]; 50 ppm, t = 3.5 hours", "result": 0.0, "unit": "in H2O"}, {"measurement": "Manometer readings", "setting": "[1]; 50 ppm, t = 4 hours", "result": 0.0, "unit": "in H2O"}, {"measurement": "Manometer readings", "setting": "[1]; 50 ppm, t = 4.5 hours", "result": 0.0, "unit": "in H2O"}, {"measurement": "Manometer readings", "setting": "[1]; 50 ppm, t = 5 hours", "result": 0.0, "unit": "in H2O"}, {"measurement": "Manometer readings", "setting": "[1]; 50 ppm, t = 5.5 hours", "result": 0.0, "unit": "in H2O"}, {"measurement": "Manometer readings", "setting": "[1]; 50 ppm, t = 6 hours", "result": 0.0, "unit": "in H2O"}, {"measurement": "Manometer readings", "setting": "[1]; 50 ppm, t = 6.5 hours", "result": 0.0, "unit": "in H2O"}, {"measurement": "Effect on gas-producing microorganisms", "setting": "[1]; all of the applied dosages (10, 25, 50 ppm), heavy steepwater", "result": "effectively reduces all gas-producing microorganisms"}, {"measurement": "Plate Showing activity, SDA", "setting": "[2]; 10 ppm, sample incubation time 4 hrs", "result": "10^2"}, {"measurement": "Plate Showing activity, SDA", "setting": "[2]; 10 ppm, sample incubation time 24 hrs", "result": "10^2"}, {"measurement": "Plate Showing activity, SDA", "setting": "[2]; 25 ppm, sample incubation time 4 hrs", "result": "10^1"}, {"measurement": "Plate Showing activity, SDA", "setting": "[2]; 25 ppm, sample incubation time 24 hrs", "result": "10^2"}, {"measurement": "Plate Showing activity, SDA", "setting": "[2]; 50 ppm, sample incubation time 4 hrs", "result": "10^2"}, {"measurement": "Plate Showing activity, SDA", "setting": "[2]; 50 ppm, sample incubation time 24 hrs", "result": "10^2"}, {"measurement": "Effect on activity of lactobacillus", "setting": "[2]; test concentrations from 10-50 ppm, 4 hour and 24 hour incubations", "result": "do not measurably decrease the activity of lactobacillus"}, {"measurement": "Effect on yeast", "setting": "yeast and mold", "result": "selectively kills the yeast"}]}]}
